Where two headings read alike, the source gives them in different places.
What was measured:
Type in all cases: in vivo
[1] = test system: Russian thistle (Salsola iberica); assay: Test B pre-/postemergence plant response; settings: Preemergence
Procedure, shortened: (§1)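 Visual scoring from 0 (no effect) to 100 (complete control) against untreated controls was done 13 to 15 days after greenhouse treatment. Chemicals were formulated in a surfactant-containing non-phytotoxic solvent and applied to soil preemergence or to 1- to 4-leaf (2-18 cm) plants postemergence.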

[2] = test system: corn (Zea mays); assay: Test B pre-/postemergence plant response; settings: for Corn plant response rating: 8 g ai/ha; for Corn plant response rating (crop injury, 0 = no effect, 100 = complete kill) at 16 g/ha / Corn plant response rating (crop injury, 0 = no effect, 100 = complete kill) at 31 g/ha / Corn plant response rating (crop injury, 0 = no effect, 100 = complete kill) at 62 g/ha: Zea mays; for Corn plant response rating (crop injury, 0 = no effect, 100 = complete kill) at 16 g/ha: 16 g ai/ha; for Corn plant response rating (crop injury, 0 = no effect, 100 = complete kill) at 31 g/ha: 31 g ai/ha; for Corn plant response rating (crop injury, 0 = no effect, 100 = complete kill) at 62 g/ha: 62 g ai/ha
Procedure, shortened: as §1

[3] = test system: downy bromegrass (Bromus tectorum); assay: Test B pre-/postemergence plant response; settings: for Bromegrass, Downy plant response rating: 8 g ai/ha; for pest or weed control at 16 g/ha / pest or weed control at 31 g/ha / pest or weed control at 62 g/ha: Bromus tectorum, read-out: Plant response rating, Bromegrass, Downy; for pest or weed control at 16 g/ha: 16 g ai/ha; for pest or weed control at 31 g/ha: 31 g ai/ha; for pest or weed control at 62 g/ha: 62 g ai/ha
Procedure, shortened: as §1

[4] = test system: eastern black (E.B.) nightshade (Solanum ptycanthum); assay: Test B pre-/postemergence plant response; settings: Preemergence
Procedure, shortened: as §1

[5] = test system: giant foxtail (Setaria faberii); assay: Test B pre-/postemergence plant response; settings: for Foxtail, Giant plant response rating: 8 g ai/ha; for pest or weed control at 16 g/ha / pest or weed control at 31 g/ha / pest or weed control at 62 g/ha: Setaria faberi, read-out: Plant response rating, Foxtail, Giant; for pest or weed control at 16 g/ha: 16 g ai/ha; for pest or weed control at 31 g/ha: 31 g ai/ha; for pest or weed control at 62 g/ha: 62 g ai/ha
Procedure, shortened: as §1

[6] = test system: green foxtail (Setaria viridis); assay: Test B pre-/postemergence plant response; settings: for Foxtail, Green plant response rating: 8 g ai/ha; for pest or weed control at 16 g/ha / pest or weed control at 31 g/ha / pest or weed control at 62 g/ha: Setaria viridis, read-out: Plant response rating, Foxtail, Green; for pest or weed control at 16 g/ha: 16 g ai/ha; for pest or weed control at 31 g/ha: 31 g ai/ha; for pest or weed control at 62 g/ha: 62 g ai/ha
Procedure, shortened: as §1

[7] = test system: large crabgrass (Digitaria sanguinalis); assay: Test B pre-/postemergence plant response; settings: for Crabgrass, Large plant response rating: 8 g ai/ha; for pest or weed control at 16 g/ha / pest or weed control at 31 g/ha / pest or weed control at 62 g/ha: Digitaria sanguinalis, read-out: Plant response rating, Crabgrass, Large; for pest or weed control at 16 g/ha: 16 g ai/ha; for pest or weed control at 31 g/ha: 31 g ai/ha; for pest or weed control at 62 g/ha: 62 g ai/ha
Procedure, shortened: as §1

[8] = test system: pigweed (Amaranthus retroflexus); assay: Test B pre-/postemergence plant response; settings: for Pigweed plant response rating: 8 g ai/ha; for pest or weed control at 16 g/ha / pest or weed control at 31 g/ha / pest or weed control at 62 g/ha: Amaranthus retroflexus, read-out: Plant response rating, Pigweed; for pest or weed control at 16 g/ha: 16 g ai/ha; for pest or weed control at 31 g/ha: 31 g ai/ha; for pest or weed control at 62 g/ha: 62 g ai/ha
Procedure, shortened: as §1

[9] = test system: wild oat (Avena fatua); assay: Test B pre-/postemergence plant response; settings: for pest or weed control at 16 g/ha / pest or weed control at 31 g/ha / pest or weed control at 62 g/ha: Avena fatua, read-out: Plant response rating, Oat, Wild; for pest or weed control at 16 g/ha: 16 g ai/ha; for pest or weed control at 31 g/ha: 31 g ai/ha; for pest or weed control at 62 g/ha: 62 g ai/ha
Procedure, shortened: as §1

[10] = test system: woolly cupgrass (Eriochloa villosa); assay: Test B pre-/postemergence plant response; settings: for Cupgrass, Woolly plant response rating: 8 g ai/ha; for pest or weed control at 16 g/ha / pest or weed control at 31 g/ha / pest or weed control at 62 g/ha: Eriochloa villosa, read-out: Plant response rating, Cupgrass, Woolly; for pest or weed control at 16 g/ha: 16 g ai/ha; for pest or weed control at 31 g/ha: 31 g ai/ha; for pest or weed control at 62 g/ha: 62 g ai/ha
Procedure, shortened: as §1

[11] = test system: barnyardgrass (Echinochloa crus-galli); assay: Test B flooded paddy test plant response; settings: Echinochloa crus-galli, read-out: Plant response rating, Barnyardgrass
Procedure, shortened: (§2)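 Compounds were added directly to paddy water over 2-leaf-stage plants in pots flooded 3 cm above soil, water depth maintained. Visual injury scored against controls after 13 to 15 days in greenhouse, 0 (none) to 100 (complete control); dash indicates no result.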

[12] = test system: ducksalad (Heteranthera limosa); assay: Test B flooded paddy test plant response; settings: Heteranthera limosa, read-out: Plant response rating, Ducksalad
Procedure, shortened: as §2

[13] = test system: rice (Oryza sativa); assay: Test B flooded paddy test plant response; settings: Oryza sativa, read-out: Plant response rating, Rice
Procedure, shortened: as §2

[14] = test system: umbrella sedge (Cyperus difformis); assay: Test B flooded paddy test plant response; settings: Cyperus difformis, read-out: Plant response rating, Sedge, Umbrella
Procedure, shortened: as §2

[15] = post-emergence, Postemergence, scale 0 to 100
[16] = post-emergence, Postemergence, scale 0 to 100, 0 no effect, 100 complete control
[17] = pre-emergence, Preemergence, scale 0 to 100 (0 no effect, 100 complete control)
[18] = pre-emergence, Preemergence, 0 to 100 scale, 0 no effect, 100 complete control
[19] = pre-emergence, Preemergence, scale 0 to 100
[20] = Flood (flooded paddy test), 62 g ai/ha, scale 0 to 100, 0 no effect, 100 complete control
[21] = Flood (flooded paddy test), 125 g ai/ha, scale 0 to 100, 0 no effect, 100 complete control
[22] = Flood (flooded paddy test), 250 g ai/ha, scale 0 to 100, 0 no effect, 100 complete control
[23] = Flood, 31 g ai/ha, scale 0 to 100

## CCc1c(C)c(-c2ccc(Cl)cc2)nn1-c1c(O)cnn(C)c1=O [Compound 26, 4-[3-(4-chlorophenyl)-5-ethyl-4-methyl-1H-pyrazol-1-yl]-5-hydroxy-2-methyl-3(2H)-pyridazinone]
[1]; 16 g ai/ha, scale 0 to 100 (0 no effect, 100 complete control)
  Plant response rating, Russian Thistle: 0
[1]; 31 g ai/ha, 0 to 100 scale, 0 no effect, 100 complete control
  Plant response rating, Russian Thistle: 0
[1]; 62 g ai/ha, scale 0 to 100
  Plant response rating, Russian Thistle: 0
[1]; 8 g ai/ha, scale 0 to 100
  Russian Thistle plant response rating: 0
[2]; postemergence, 0-100 scale
  Corn plant response rating: 0
[2]; Preemergence, scale 0 to 100
  Corn plant response rating: 15
[2]; [15]
  Corn plant response rating (crop injury, 0 = no effect, 100 = complete kill) at 16 g/ha: 0%
[2]; [16]
  Corn plant response rating (crop injury, 0 = no effect, 100 = complete kill) at 31 g/ha: 100%
  Corn plant response rating (crop injury, 0 = no effect, 100 = complete kill) at 62 g/ha: 100%
[2]; [17]
  Corn plant response rating (crop injury, 0 = no effect, 100 = complete kill) at 16 g/ha: 30%
[2]; [18]
  Corn plant response rating (crop injury, 0 = no effect, 100 = complete kill) at 31 g/ha: 70%
[2]; [19]
  Corn plant response rating (crop injury, 0 = no effect, 100 = complete kill) at 62 g/ha: 98%
[3]; postemergence, 0-100 scale
  Bromegrass, Downy plant response rating: 0
[3]; [15]
  pest or weed control at 16 g/ha: 10%
[3]; [16]
  pest or weed control at 31 g/ha: 30%
  pest or weed control at 62 g/ha: 60%
[3]; [17]
  pest or weed control at 16 g/ha: 0%
[3]; [18]
  pest or weed control at 31 g/ha: 10%
[3]; [19]
  pest or weed control at 62 g/ha: 65%
[3]; Preemergence, scale 0 to 100
  Bromegrass, Downy plant response rating: 0
[4]; 8 g ai/ha, scale 0 to 100
  Nightshade, E. B. plant response rating: 0
[4]; Solanum, pre-emergence, 16 g ai/ha, scale 0 to 100 (0 no effect, 100 complete control), read-out: Plant response rating, Nightshade, E. B.
  pest or weed control at 16 g/ha: 0%
[4]; Solanum, pre-emergence, 31 g ai/ha, 0 to 100 scale, 0 no effect, 100 complete control, read-out: Plant response rating, Nightshade, E. B.
  pest or weed control at 31 g/ha: 0%
[4]; Solanum, pre-emergence, 62 g ai/ha, scale 0 to 100, read-out: Plant response rating, Nightshade, E. B.
  pest or weed control at 62 g/ha: 0%
[5]; postemergence, 0-100 scale
  Foxtail, Giant plant response rating: 80
[5]; Preemergence, scale 0 to 100
  Foxtail, Giant plant response rating: 65
[5]; [15]
  pest or weed control at 16 g/ha: 95%
[5]; [16]
  pest or weed control at 31 g/ha: 95%
  pest or weed control at 62 g/ha: 100%
[5]; [17]
  pest or weed control at 16 g/ha: 95%
[5]; [18]
  pest or weed control at 31 g/ha: 100%
[5]; [19]
  pest or weed control at 62 g/ha: 100%
[6]; postemergence, 0-100 scale
  Foxtail, Green plant response rating: 60
[6]; Preemergence, scale 0 to 100
  Foxtail, Green plant response rating: 98
[6]; [15]
  pest or weed control at 16 g/ha: 80%
[6]; [16]
  pest or weed control at 31 g/ha: 80%
  pest or weed control at 62 g/ha: 98%
[6]; [17]
  pest or weed control at 16 g/ha: 100%
[6]; [18]
  pest or weed control at 31 g/ha: 100%
[6]; [19]
  pest or weed control at 62 g/ha: 100%
[7]; postemergence, 0-100 scale
  Crabgrass, Large plant response rating: 45
[7]; [15]
  pest or weed control at 16 g/ha: 60%
[7]; [16]
  pest or weed control at 31 g/ha: 80%
  pest or weed control at 62 g/ha: 80%
[7]; [17]
  pest or weed control at 16 g/ha: 65%
[7]; [18]
  pest or weed control at 31 g/ha: 70%
[7]; [19]
  pest or weed control at 62 g/ha: 95%
[7]; Preemergence, scale 0 to 100
  Crabgrass, Large plant response rating: 0
[8]; postemergence, 0-100 scale
  Pigweed plant response rating: 0
[8]; [15]
  pest or weed control at 16 g/ha: 0%
[8]; [16]
  pest or weed control at 31 g/ha: 0%
  pest or weed control at 62 g/ha: 0%
[8]; [17]
  pest or weed control at 16 g/ha: 0%
[8]; [18]
  pest or weed control at 31 g/ha: 0%
[8]; [19]
  pest or weed control at 62 g/ha: 0%
[8]; Preemergence, scale 0 to 100
  Pigweed plant response rating: 0
[9]; 8 g ai/ha, postemergence, 0-100 scale
  Oat, Wild plant response rating: 85
[9]; [15]
  pest or weed control at 16 g/ha: 90%
[9]; [16]
  pest or weed control at 31 g/ha: 90%
  pest or weed control at 62 g/ha: 100%
[9]; [17]
  pest or weed control at 16 g/ha: 80%
[9]; [18]
  pest or weed control at 31 g/ha: 85%
[9]; [19]
  pest or weed control at 62 g/ha: 85%
[10]; postemergence, 0-100 scale
  Cupgrass, Woolly plant response rating: 85
[10]; [15]
  pest or weed control at 16 g/ha: 95%
[10]; [16]
  pest or weed control at 31 g/ha: 98%
  pest or weed control at 62 g/ha: 98%
[10]; [17]
  pest or weed control at 16 g/ha: 70%
[10]; [18]
  pest or weed control at 31 g/ha: 85%
[10]; [19]
  pest or weed control at 62 g/ha: 100%
[10]; Preemergence, scale 0 to 100
  Cupgrass, Woolly plant response rating: 20
[11]; [20]
  pest or weed control at 62 g/ha: 0%
[11]; [21]
  pest or weed control at 125 g/ha: 0%
[11]; [22]
  pest or weed control at 250 g/ha: 20%
[11]; [23]
  pest or weed control at 31 g/ha: 0%
[12]; [20]
  pest or weed control at 62 g/ha: 50%
[12]; [22]
  pest or weed control at 250 g/ha: 70%
[12]; [23]
  pest or weed control at 31 g/ha: 40%
[13]; [20]
  plant injury at 62 g/ha: 0%
[13]; [21]
  plant injury at 125 g/ha: 0%
[13]; [22]
  plant injury at 250 g/ha: 0%
[13]; [23]
  plant injury at 31 g/ha: 0%
[14]; [20]
  pest or weed control at 62 g/ha: 0%
[14]; [21]
  pest or weed control at 125 g/ha: 0%
[14]; [22]
  pest or weed control at 250 g/ha: 75%
[14]; [23]
  pest or weed control at 31 g/ha: 0%

— patent US20100267561A1, “HERBICIDAL PYRIDAZINONE DERIVATIVES” (priority 2007, published 2010)
